Assay results from patent US20230129258A1, “HETEROTANDEM BICYCLIC PEPTIDE COMPLEXES” (BicycleTx Limited, priority 2019, published 2023).

Columns and labels:
CD137 [1] = target: T1, CD137 (Homo sapiens, UniProt Q07011); assay: CD137 reporter assay (Promega, Jurkat cells) in co-culture with PD-L1-expressing RKO cells; type: cell-based; design: host or cells: Jurkat reporter cells; conditions: read-out: Fold Induction over background
Protocol: Culture medium, referred to as R1 media, is prepared by adding 1% FBS to RPMI-1640 (component of Promega kit CS196005). Serial dilutions of test articles in R1 are prepared in a sterile 96 well-plate. Add 25 μL per well of test articles or R1 (as a background control) to designated wells in a white cell culture plate. Tumor cells* are harvested and resuspended at a concentration of 400,000 cells/mL in R1 media. Twenty five (25) μL/well of tumor cells are added to the white cell culture plate. Jurkat cells (Promega kit CS196005, 0.5 mL) are thawed in the water bath and then added to 5 ml pre-warmed R1 media. Twenty five (25) μL/well of Jurkat cells are then added to the white cell culture plate. Incubate the cells and test articles for 6 h at 37° C., 5% CO2. At the end of 6 h, add 75 μL/well Bio-Glo™ reagent (Promega) and incubate for 10 min before reading luminescence in a plate reader (Clariostar, BMG). The fold change relative to cells alone (Jurkat cells+Cell line used in co-culture) is calculated and plotted in GraphPad Prism as log(agonist) vs response to determine EC50 (nM) and Fold Induction over background (Max).
The tumor cell types used in co-culture for EphA2 are A549, PC3 and HT29. The tumor cell type used in co-culture for PD-L1 is RKO.

[2] = tested on: TNF family receptors OX40 and CD40; assay: CD137 paralogue screening by SPR; type: binding; conditions: streptavidin captured peptide, soluble receptors
Protocol: CD137 Paralogue screening: Binding of streptavidin captured BCY13582 (biotinylated-BCY11863) was assessed using SPR against soluble TNF family receptors OX40 and CD40.

[3] = tested on: 5484 full-length human plasma membrane proteins and secreted proteins expressed in HEK293 cells; assay: Retrogenix cell microarray off-target screening; type: binding; conditions: 1 μM test peptide
Protocol: Retrogenix microarray screening: Retrogenix's cell microarray technology was used to screen for specific off-target binding interactions of a biotinylated BCY11863 known as BCY13582.
Under these conditions, the test peptide was screened for binding against human HEK293 cells, individually expressing 5484 full-length human plasma membrane proteins and secreted proteins.
Each primary hit was re-expressed, along with two control receptors (TGFBR2 and EGFR), and re-tested with 1 μM BCY13582 test peptide, 1 μM BCY13582 test peptide in the presence of 100 μM BCY11863, and other positive and negative control treatments (FIG. 4). […] These were untethered and tethered forms of Nectin-4, and CD137—the primary targets.

CD137 [4] = target: T1, CD137; assay: CD137 reporter assay (Promega CD137 luciferase reporter, Jurkat cells) in co-culture with Nectin-4-expressing tumor cells; type: cell-based; design: host or cells: Jurkat reporter cells; conditions: for EC50: Arithmetic mean EC50 (nM)

T1 sequence (Q07011 24-255): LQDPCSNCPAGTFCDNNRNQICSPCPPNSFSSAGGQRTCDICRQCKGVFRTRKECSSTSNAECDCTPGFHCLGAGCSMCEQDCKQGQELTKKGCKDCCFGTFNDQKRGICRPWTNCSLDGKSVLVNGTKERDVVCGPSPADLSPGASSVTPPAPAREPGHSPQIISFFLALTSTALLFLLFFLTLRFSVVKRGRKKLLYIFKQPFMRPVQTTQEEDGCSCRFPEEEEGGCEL

## CCCC[C@@H]1NC(=O)[C@H](Cc2ccc(O)cc2)NC(=O)[C@@H]2CCCN2C(=O)[C@H](CC(=O)O)NC(=O)[C@H](C)NC(=O)[C@H](Cc2ccccc2)NC(=O)[C@@H]2CSCCC(=O)N3CN(CN(C3)C(=O)CCSC[C@@H](C(=O)N[C@@H](C)C(N)=O)NC1=O)C(=O)CCSC[C@H](NC(C)=O)C(=O)N[C@@H](CC(C)(C)C)C(=O)N1CCC[C@H]1C(=O)N[C@@H](CCC(=O)O)C(=O)N[C@H](CCCCNC(=O)CCc1cn(CCOCCOCCOCCOCCOCCOCCOCCOCCOCCOCCNC(=O)CCOCCN(CCOCCC(=O)NCCOCCOCCOCCOCCOCCOCCOCCOCCOCCOCCn3cc(CCC(=O)NCCCC[C@@H]4NC(=O)[C@H](CCC(N)=O)NC(=O)[C@@H]5CSCCC(=O)N6CN(CN(C6)C(=O)CCSC[C@@H](C(=O)N6CCC[C@H]6C(=O)N[C@@H](CO)C(=O)N[C@@H](Cc6c[nH]cn6)C(N)=O)NC(=O)[C@H](CC(C)C)NC(=O)[C@H](Cc6c[nH]cn6)NC(=O)[C@H](CC(C)C)NC4=O)C(=O)CCSC[C@H](NC(=O)[C@H](CCCCN)NC(=O)[C@H](CC(=O)O)NC(=O)[C@H](CO)NC(C)=O)C(=O)N[C@@H](CO)C(=O)N[C@@H](C)C(=O)NCC(=O)N[C@@H](Cc4c[nH]c6ccccc46)C(=O)N[C@@H](CC(C)C)C(=O)N[C@@H]([C@@H](C)O)C(=O)N[C@@H](CCSC)C(=O)N5)nn3)CCOCCC(=O)NCCOCCOCCOCCOCCOCCOCCOCCOCCOCCOCCn3cc(CCC(=O)NCCCC[C@H]4NC(=O)[C@H](CCC(=O)O)NC(=O)[C@@H]5CCCN5C(=O)[C@H](CC(C)(C)C)NC(=O)[C@@H](NC(C)=O)CSCCC(=O)N5CN6CN(C5)C(=O)CCSC[C@H](NC(=O)[C@H](Cc5ccc(O)cc5)NC(=O)[C@@H]5CCCN5C4=O)C(=O)N[C@@H](Cc4ccccc4)C(=O)N[C@@H](C)C(=O)N[C@@H](CC(=O)O)C(=O)N4CCC[C@H]4C(=O)N[C@@H](Cc4ccc(O)cc4)C(=O)N[C@@H](CCCC)C(=O)N[C@H](C(=O)N[C@@H](C)C(N)=O)CSCCC6=O)nn3)nn1)C(=O)N1CCC[C@H]1C(=O)N[C@@H](Cc1ccc(O)cc1)C(=O)N2 [BCY11780]
CD137 [1]
  fold induction: 13

## CCCC[C@@H]1NC(=O)[C@H](Cc2ccc(O)cc2)NC(=O)[C@@H]2CCCN2C(=O)[C@H](CC(=O)O)NC(=O)[C@H](C)NC(=O)[C@H](Cc2ccccc2)NC(=O)[C@@H]2CSCCC(=O)N3CN(CN(C3)C(=O)CCSC[C@@H](C(=O)N[C@@H](C)C(N)=O)NC1=O)C(=O)CCSC[C@H](NC(C)=O)C(=O)N[C@@H](CC(C)(C)C)C(=O)N1CCC[C@H]1C(=O)N[C@@H](CCC(=O)O)C(=O)N[C@H](CCCCNC(=O)CCc1cn(CCOCCOCCOCCN(CCOCCOCCOCCC(=O)N[C@H]3CSCCC(=O)N4CN5CN(C4)C(=O)CCSC[C@H](NC(=O)[C@@H](CC(=O)O)NC(=O)[C@H](Cc4cccc6ccccc46)NC(=O)[C@@H]4CCCN4C3=O)C(=O)N[C@@H](CCSC)C(=O)N[C@@H](CCCCNC(=N)N)C(=O)N[C@@H](CC(=O)O)C(=O)N[C@@H](Cc3c[nH]c4ccccc34)C(=O)N[C@@H](CO)C(=O)N[C@@H]([C@@H](C)O)C(=O)N3CCC[C@H]3C(=O)N3C[C@H](O)C[C@H]3C(=O)N[C@@H](Cc3c[nH]c4ccccc34)C(=O)N[C@H](C(N)=O)CSCCC5=O)CCOCCOCCOCCn3cc(CCC(=O)NCCCC[C@H]4NC(=O)[C@H](CCC(=O)O)NC(=O)[C@@H]5CCCN5C(=O)[C@H](CC(C)(C)C)NC(=O)[C@@H](NC(C)=O)CSCCC(=O)N5CN6CN(C5)C(=O)CCSC[C@H](NC(=O)[C@H](Cc5ccc(O)cc5)NC(=O)[C@@H]5CCCN5C4=O)C(=O)N[C@@H](Cc4ccccc4)C(=O)N[C@@H](C)C(=O)N[C@@H](CC(=O)O)C(=O)N4CCC[C@H]4C(=O)N[C@@H](Cc4ccc(O)cc4)C(=O)N[C@@H](CCCC)C(=O)N[C@H](C(=O)N[C@@H](CCCCNC(=O)CCOCCOCCOCCOCCOCCOCCOCCOCCOCCOCCOCCOCCNC(=O)CCCC[C@@H]4SC[C@@H]5NC(=O)N[C@@H]54)C(N)=O)CSCCC6=O)nn3)nn1)C(=O)N1CCC[C@H]1C(=O)N[C@@H](Cc1ccc(O)cc1)C(=O)N2 [BCY13582]
[2]
  binding to OX40 and CD40: concentration up to which no binding was seen: > 100 nM
[3]
  specific off-target interactions: No specific off-target interactions
CD137 [4]; co-culture with HT1376 (human), Table 1B
  EC50: 0.58 ± 0.27 nM
CD137 [4]; co-culture with MDA-MB-468 (human)
  EC50: 0.34 ± 0.02 nM
CD137 [4]; co-culture with HT1376, Table 2A
  Emax: 57 fold induction over background
